Results taken from patent US11661398B2, “Cellular transport system for transferring a sulfonic acid construct carrying a cargo into the cytoplasm of a cell” (Scientist of Fortune, S.A., priority 2017, dated 2023).
Peptide text beside a SMILES is read from it.

Assays:
TK090 = experiment: Complementation of NAD+ auxotrophic strain; assay type: cell-based, E. coli; details: for concentration needed to support growth as NAD+ source: TK090[pSsuABC, pPnGGT*]; for growth with compound as sole source of NAD+: spent MS minimal medium, 25 μM N-picolyl-sulfobutyramide, different plasmid combinations
Protocol: FIG. 27. Utilization of NAD^+ precursors. NAD^+ auxotrophic strain TK090 [pSsuABC; pPnGGT*] was grown in MS minimal medium containing 0.5% glucose, 1 mM MgSO4, 0.4 mM leucine, 0.5 mM IPTG, 100 ng ml^−1 aTc and varying concentrations of either 3-picolylamine (a) or nicotinic acid (b). […] Dots represent the average of three independent measurements with standard deviations shown as error bars.
Selection experiments with NAD^+ auxotrophic strains are prone to contamination with unwanted NAD^+ sources and therefore demand special preparation of the precultures and medium. For the precultures, all tested strains were incubated overnight in MS minimal medium supplemented with 0.5% glucose, 1 mM MgSO4, 0.4 mM L-leucine and 5 μM nicotinic acid. To guarantee complete consumption of nicotinic acid, precultures were then diluted 100-fold in MS minimal medium supplemented only with 0.5% glucose, 1 mM MgSO4 and 0.4 mM L-leucine, but no additional NAD^+ source. Following an overnight incubation period, NAD^+-deprived cells were washed twice in the same medium and used for growth assays.
To prepare the medium for final growth assays, MS minimal medium was supplemented with 0.5% glucose, 1 mM MgSO4, 0.4 mM L-leucine and 25 μM N-picolyl-sulfobutyramide (see below for description of synthesis). To remove all NAD^+ contaminants, the medium was inoculated overnight with strain TK090, which can utilize free NAD^+ precursors, but cannot take up or hydrolyze N-picolyl-sulfobutyramide due to the absence of SsuABC and PnGGT*. After an overnight incubation period, cells were separated from the medium by centrifugation and the supernatant was filtered using a Minisart 0.22 μm High Flow Syringe Filter (Sartorius, Goettingen, Germany). The filtered supernatant was then supplemented with the respective antibiotics and inducers and used for growth assays.

BW25113 ΔleuB (TK080) = experiment: Growth on different sulfur sources; assay type: cell-based, E. coli; details: 1 mM sulfur source, minimal medium, 0.5% glucose, 0.4 mM leucine
Protocol: FIG. 21: Growth of E. coli on sulfonates. Strains TK080 (a; BW25113 ΔleuB) and TK082 (b; BW25113 ΔleuB ΔssuEADCB ΔtauD) were grown in MS minimal medium supplemented with 0.5% glucose, 0.4 mM L-leucine, 1 mM MgCl2 and 1 mM of a sulfur source. TK080 was able to use the majority of the tested sulfur sources with a similar efficiency as sulfate. […] Dots represent the average of three independent measurements with standard deviations shown as error bars.
For the experiments relating to the sulfonate based synthetic transport system, unless stated otherwise, growth experiments in selective medium were carried out in sulfur free MS minimal medium (4 mM citric acid, 1 mM MgCl2, 20 mM NH4Cl, 50 mM KH2PO4 and 1×NTA mix (10 μM nitrilotriacetic acid, 3 μM CaCl2, 3 μM FeCl3, 1 μM MnCl2, 0.3 μM ZnCl2, 0.3 μM H3B3, 0.3 μM CrC3, 0.3 μM COCl2, 0.3 μM CuCl2, 0.3 μM Ni2C, 0.3 μM Na2MoO4, 0.3 μM Na2SeO3)) supplemented with 0.5% glucose. MgSO4 (1 mM), MgCl2 (1 mM), L-leucine (0.4 mM), IPTG (0.5 mM), aTc (100 ng mL-1), nicotinic acid (various concentrations), 3-picolylamine (various concentrations) and sulfonates (various concentrations) as indicated in the text. […] Synthesis schemes for sulfobutanoyl-p-nitroanilide and other sulfonates are given below.
The sulfonate transporters SsuABC and TauABC transport a wide variety of sulfonate compounds (Eichhorn et al., 2000) and can thus be exploited for the present synthetic transport system. As such, the uptake and utilization of sulfobutanoyl-L-leucine was assessed. The leucine auxotrophic strain BW25113 ΔleuB was tested for growth in minimal medium supplemented with 0.5% glucose, 0.4 mM leucine, 0.4 mM isoleucine and 1 mM of a sulfur-containing compound as the sole sulfur source.

TK082 = experiment: In vivo hydrolysis of sulfobutanoyl-p-nitroanilide and sulfobutanoyl-AMC; assay type: cell-based, E. coli
Protocol: Strain TK082 was transformed with plasmids as indicated in the text and grown at 37° C. in MS minimal medium supplemented with 0.5% glucose, 1 mM MgSO4 and 0.4 mM L-leucine to an OD600 of 0.5. At that stage, the synthesis of PnGGT* and/or SsuABC was induced for 2 hours by adding 0.5 mM IPTG and 100 ng mL^−1 aTc. Following this synthesis period, cells were washed in the same medium to remove proteins that had been released into the medium by cell lysis. After an additional centrifugation step, cells were resuspended in MS minimal medium supplemented with 0.5% glucose, 1 mM MgSO4, 0.4 mM L-leucine, 0.5 mM IPTG, 100 ng mL^−1 aTc and 0.5 mM sulfobutanoyl-p-nitroanilide or sulfobutanoyl-AMC (see below for description of synthesis) and incubated in a Tecan Infinite 200 Pro plate reader at 37° C. To monitor cell density and the release of 4-nitroaniline, absorbance was constantly measured at 600 nm and 410 nm. The release of AMC was monitored by measuring the fluorescence at λex=350 nm and λem=450 nm. To determine the influence of competition for the sulfonate transporter SsuABC, different concentrations of pentanesulfonate (Sigma Aldrich) were added to the medium.

TK054 = experiment: Leucine auxotrophy complementation with peptide vector; assay type: cell-based, E. coli; details: 1 mM peptide, plasmid pACT3/6×His_PnGGT ΔN24, 0.5 mM IPTG, 37° C., 5 days or more
Protocol: (§1) LB Miller broth (Becton Dickinson, Sparks, Md., USA) was used as standard growth medium for bacterial cultures (Sambrook, 2001). For the preparation of competent cells, SOB medium was used (Hanahan, 1983). Unless stated otherwise, growth experiments in selective medium were carried out in M9 minimal medium (Sambrook, 2001) supplemented with 0.5% glucose, 1 μg mL^−1 thiamine, 0.5 mM IPTG and 1 mM alanyl-γ-glutamyl-leucine (>95% purity, custom synthesized by Pepscan, Lelystad, Netherlands). For growth experiments on solid medium Bacto Agar (Becton Dickinson) was added to a final concentration of 1.5%. Growth experiments in liquid medium were performed either in a Tecan Infinite 200 Pro plate reader (Tecan, Mannedorf, Switzerland) or in a Biolector Basic Microbiorector System (m2p-labs, Baesweiler, Germany). All growth experiments were performed at 37° C. […]
The possibility to express 6×His_PnGGT ΔN24 in the cytoplasm of E. coli and the enzyme's relaxed substrate specificity (Imaoka et al., 2010) opened up the possibility to selectively hydrolyze γ-glutamyl compounds within the cytoplasm. […] As a cargo, leucine was chosen, whose successful release could be easily detected by restoring growth to a leucine auxotrophic strain. […]

TK054 ΔpcnB = experiment: as above; assay type: cell-based, E. coli; details: 1 mM peptide, 6×His_PnGGT ΔN24 expressed, IPTG present
Protocol: as §1
To verify that the beneficial effects to growth with Ala-γ-Glu-Leu were caused by activity reducing mutations in pcnB, the entire gene was removed from the unmutated leucine auxotrophic selection strain, resulting in strain TK054 ΔpcnB. On M9 minimal medium containing 0.5% glucose and 1 mM Ala-γ-Glu-Leu as the only source of leucine, no growth of this strain was detected if the inducer IPTG was omitted (FIG. 6a). […]

TK088[pSsuABC] = experiment: Growth of histidine auxotrophic strain in liquid medium; assay type: cell-based, E. coli; details: liquid MS minimal medium, 0.5 mM compound, pACT3 versus pPnGGT*
Protocol: FIG. 22: Identification of GGT* activity and refactoring of the ssuABC operon. (a) Cell free extracts of strain TK018 synthesizing either EcGGT, EcGGT D433N, PnGGT or PnGGT D405N were incubated with 2 mM of the substrates γ-glutamyl-p-nitroanilide or sulfobutanoyl-p-nitroanilide (5), respectively. The release of 4-nitroaniline was quantified by measuring the absorption at 410 nm. (b) Plasmid map of the three-dimensional RBS-library for refactoring the ssuABC operon using 144 RBS variants per gene. RBS library sequences are underlined. Arrows point towards the final RBS sequences observed in plasmid pSsuABC. […] (e) Growth of strain TK088[pSsuABC]transformed with the empty vector pACT3 (black circles) or plasmid pPnGGT* (white circles) in liquid MS minimal medium supplemented with 0.5% glucose, 1 mM MgSO4, 0.4 mM L-leucine, 0.5 mM IPTG, 100 ng ml^−1 aTc and 0.5 mM sulfobutanoyl-L-histidine. Bars and dots from panels (a), (d) and (e) represent the average of three independent measurements with standard deviations shown as error bars. […]

[1] = substrate: CC(C)C[C@H](NC(=O)CCCS(=O)(=O)O)C(=O)O; experiment: purified protein, by the assay type; details: other: kinetic studies cited in Example 11, conditions not given

## NCc1cccnc1 [3-picolylamine]
TK090; MS minimal medium
  concentration necessary to complement the NAD+ auxotrophy compared to nicotinic acid: 500 to 1000 fold
  concentration needed to support growth as NAD+ source: above 50 μM
TK090
  growth with compound as sole source of NAD+: no growth was observed

## Cc1cc(=O)oc2cc(NC(=O)CCCS(=O)(=O)O)ccc12 [sulfobutanoyl-AMC, N-(4-Methyl-2-oxo-2H-1-benzopyran-7-yl)sulfobutyramide]
BW25113 ΔleuB (TK080)
  growth with compound as sole sulfur source: utilized with a lower efficiency
TK082; 0.5 mM compound, different plasmid combinations
  in vivo release of AMC from the compound: some release of the dye was detected in a strain expressing only PnGGT*

## CC(C)C[C@H](NC(=O)CC[C@H](NC(=O)[C@H](C)N)C(=O)O)C(=O)O [Ala-γ-Glu-Leu, alanyl-γ-glutamyl-leucine] (HELM PEPTIDE1{A.[gGlu].L}$$$$V2.0)
TK054
  growth with peptide as sole source of leucine: poor growth
TK054 ΔpcnB
  growth with peptide as sole source of leucine: grew rapidly

## CCCCCS(=O)(=O)O [pentanesulfonate, reference compound]
TK082; TK082[pSsuABC, pPnGGT*]
  effect of competitor on release of 4-nitroaniline from 0.5 mM sulfobutanoyl-p-nitroanilide: sufficient to slow down the release of 4-nitroaniline
  effect of competitor on release of AMC from 0.5 mM sulfobutanoyl-AMC: sufficient to slow down the release of AMC in the presence of SsuABC

## O=C(CCCS(=O)(=O)[O-])NCc1cccnc1.[Na+] [N-picolyl-sulfobutyramide, N-(3-Pyridinylmethyl)sulfobutyramide sodium salt]
TK090
  growth with compound as sole source of NAD+: only observed when both the sulfonate transporter SsuABC and PnGGT* were synthesized simultaneously

## O=C(O)c1cccnc1 [nicotinic acid]
TK090; MS minimal medium
  concentration needed to support growth as NAD+ source: sub-micromolar concentrations

## O=C(CCCS(=O)(=O)O)N[C@@H](Cc1c[nH]cn1)C(=O)O [sulfobutanoyl-L-histidine]
TK088[pSsuABC]
  growth with compound as sole histidine source: Entirely equivalent results
TK088[pSsuABC]; listed as sulfubutanoyl-L-histidine
  growth with compound as sole histidine source: grew significantly faster and to higher cell densities
BW25113 ΔleuB (TK080)
  growth with compound as sole sulfur source: comparable efficiencies

B1: PnGGT ΔN24 D405N (Pseudomonas nitroreducens; D405N) (protein)
chain: MRGSHHHHHHGSACELTLDGGAVAAPDQYGAKVAAEILKKGGNAVDAAVATAFTLAVTYPEAGNIGGGGFMTLYVDGKPYFLDYREIAPKAATKTMYLNEKGEVIENLSLVGAKAAGVPGTVMGLWEAHQRFGKLKWSELLTPAIGYAQTGFKVADQQYQYRQDAIALFNGKTNFGDYFGTMKPGEVFKQPELAKTLERIADKGPDDFYKGETAKLLIAQMKQDGGLITSDDLVDYQAKWREPMRIDWQGNTLYTAPLPSSGGIALAQLIGIKEQRAADFKGVELNSAKYIHLLSEIEKRVFADRADYLGDPQFSKVPVAQLTDPKYIAKRAGEVNPDAISATEKVRPGLEPHQTTHFSIVDKDGNAVSNTYTLNWDFGSGVVVKGAGFLLNDEMDNFSSKPGVANAFGVVGSDANAIEPGKRMLSSMSPSIVTRDGHVSLVLGTPGGSRIFTSIFQVLNNVYDFHLPLEKAVAAQRVHHQLLPKDTIYYDAYAPLPGKVADELKAMGYTLEDQGWNMGDIQAIRVNGKALETASDPRGRGVGMVVKP
[1]
  Km: 734 µM
